Converted amounts (≈) assume the structure as drawn.
What was measured:
Bacillus cereus [1] = assay: Antibacterial activity against Bacillus cereus NCIM 2156 after 24 hrs by broth micro dilution method; type: functional; conditions: NCIM 2156, 24 h
Staphylococcus aureus [2] = assay: Antibacterial activity against Staphylococcus aureus NCIM 2079 after 24 hrs by broth micro dilution method; type: functional; conditions: NCIM 2079, 24 h
Escherichia coli [3] = assay: Antibacterial activity against wild type Escherichia coli NCIM 2065 after 24 hrs by broth micro dilution method; type: functional; conditions: NCIM 2065, 24 h
Pseudomonas aeruginosa [4] = assay: Antibacterial activity against Pseudomonas aeruginosa NCIM 2036 after 24 hrs by broth micro dilution method; type: functional; conditions: NCIM 2036, 24 h
Escherichia coli [5] = assay: Antibacterial activity against Escherichia coli U-621 mutant after 24 hrs by broth micro dilution method; type: functional; conditions: U-621, 24 h
PBMC = assay: Cytotoxicity against human PBMC assessed as decrease in cell viability after 5 days by MTT assay; type: cell-based; conditions: 120 h
CCRF-CEM = assay: Cytotoxicity against human CEM cells assessed as decrease in cell viability after 5 days by MTT assay; type: cell-based; conditions: 120 h
Vero = assay: Cytotoxicity against African green monkey Vero cells assessed as decrease in cell viability after 3 days by MTT assay; type: cell-based; conditions: Chlorocebus sabaeus, 72 h
Escherichia coli [6] = assay: Potency index, ratio of sulfamethoxazole MIC to compound MIC for Escherichia coli U-621 mutant; type: functional
Escherichia coli [7] = assay: Potency index, ratio of […] MIC to compound MIC for Escherichia coli U-621 mutant; type: functional
Pseudomonas aeruginosa [8] = assay: Synergistic antibacterial activity against Pseudomonas aeruginosa NCIM 2036 at 0.37 to 50 ug/ml after 24 hrs in presence of […] sulfamethoxazole by broth micro dilution method; type: functional; conditions: NCIM 2036, 24 h
Pseudomonas aeruginosa [9] = assay: Synergistic antibacterial activity against Pseudomonas aeruginosa NCIM 2036 assessed as fractional inhibitory concentration at 0.37 to 50 ug/ml after 24 hrs in presence of […] sulfamethoxazole by broth micro dilution method; type: functional
Escherichia coli [10] = assay: Synergistic antibacterial activity against wild type Escherichia coli NCIM 2065 at 0.5 times MIC after 24 hrs in presence of 0.0976 to […] chloramphenicol by broth micro dilution method; type: functional; conditions: NCIM 2065, 24 h
Pseudomonas aeruginosa [11] = assay: Synergistic antibacterial activity against Pseudomonas aeruginosa NCIM 2036 at 0.5 times MIC after 24 hrs in presence of 0.0976 to […] chloramphenicol by broth micro dilution method; type: functional; conditions: NCIM 2036, 24 h
Escherichia coli [12] = assay: Synergistic antibacterial activity against wild type Escherichia coli NCIM 2065 assessed as fractional inhibitory concentration at 0.5 times MIC after 24 hrs in presence of 0.0976 to […] chloramphenicol by broth micro dilution method; type: functional
Pseudomonas aeruginosa [13] = assay: Synergistic antibacterial activity against Pseudomonas aeruginosa NCIM 2036 assessed as fractional inhibitory concentration at 0.5 times MIC after 24 hrs in presence of 0.0976 to […] chloramphenicol by broth micro dilution method; type: functional
Escherichia coli [14] = assay: Synergistic antibacterial activity against wild type Escherichia coli NCIM 2065 at 0.5 times MIC after 24 hrs in presence of 0.0976 to […] sulfamethoxazole by broth micro dilution method; type: functional; conditions: NCIM 2065, 24 h
Escherichia coli [15] = assay: Synergistic antibacterial activity against wild type Escherichia coli NCIM 2065 assessed as fractional inhibitory concentration at 0.5 times MIC after 24 hrs in presence of 0.0976 to […] sulfamethoxazole by broth micro dilution method; type: functional
Pseudomonas aeruginosa [16] = assay: Synergistic antibacterial activity against Pseudomonas aeruginosa NCIM 2036 at 0.5 times MIC after 24 hrs in presence of 0.0976 to […] chloramphenicol by broth micro dilution method relative to compound alone; type: functional
Escherichia coli [17] = assay: Potency index, ratio of chloramphenicol MIC to compound MIC for wild type Escherichia coli NCIM 2065; type: functional
Bacillus cereus [18] = assay: Synergistic antibacterial activity against Bacillus cereus NCIM 2156 at 0.37 to 50 ug/ml after 24 hrs in presence of […] chloramphenicol by broth micro dilution method; type: functional; conditions: NCIM 2156, 24 h
Staphylococcus aureus [19] = assay: Synergistic antibacterial activity against Staphylococcus aureus NCIM 2079 at 0.37 to 50 ug/ml after 24 hrs in presence of […] chloramphenicol by broth micro dilution method; type: functional; conditions: NCIM 2079, 24 h
Pseudomonas aeruginosa [20] = assay: Synergistic antibacterial activity against Pseudomonas aeruginosa NCIM 2036 at 0.37 to 50 ug/ml after 24 hrs in presence of […] chloramphenicol by broth micro dilution method; type: functional; conditions: NCIM 2036, 24 h
Bacillus cereus [21] = assay: Synergistic antibacterial activity against Bacillus cereus NCIM 2156 assessed as fractional inhibitory concentration at 0.37 to 50 ug/ml after 24 hrs in presence of […] chloramphenicol by broth micro dilution method; type: functional
Staphylococcus aureus [22] = assay: Synergistic antibacterial activity against Staphylococcus aureus NCIM 2079 assessed as fractional inhibitory concentration at 0.37 to 50 ug/ml after 24 hrs in presence of […] chloramphenicol by broth micro dilution method; type: functional
Pseudomonas aeruginosa [23] = assay: Synergistic antibacterial activity against Pseudomonas aeruginosa NCIM 2036 assessed as fractional inhibitory concentration at 0.37 to 50 ug/ml after 24 hrs in presence of […] chloramphenicol by broth micro dilution method; type: functional
Bacillus cereus [24] = assay: Synergistic antibacterial activity against Bacillus cereus NCIM 2156 at 0.37 to 50 ug/ml after 24 hrs in presence of […] sulfamethoxazole by broth micro dilution method; type: functional; conditions: NCIM 2156, 24 h
Staphylococcus aureus [25] = assay: Synergistic antibacterial activity against Staphylococcus aureus NCIM 2079 at 0.37 to 50 ug/ml after 24 hrs in presence of […] sulfamethoxazole by broth micro dilution method; type: functional; conditions: NCIM 2079, 24 h
Bacillus cereus [26] = assay: Synergistic antibacterial activity against Bacillus cereus NCIM 2156 assessed as fractional inhibitory concentration at 0.37 to 50 ug/ml after 24 hrs in presence of […] sulfamethoxazole by broth micro dilution method; type: functional
Staphylococcus aureus [27] = assay: Synergistic antibacterial activity against Staphylococcus aureus NCIM 2079 assessed as fractional inhibitory concentration at 0.37 to 50 ug/ml after 24 hrs in presence of […] sulfamethoxazole by broth micro dilution method; type: functional
Pseudomonas aeruginosa [28] = assay: Potency index, ratio of chloramphenicol MIC to compound MIC for Pseudomonas aeruginosa NCIM 2036; type: functional
Pseudomonas aeruginosa [29] = assay: Synergistic antibacterial activity against Pseudomonas aeruginosa NCIM 2036 at 0.5 times MIC after 24 hrs in presence of 0.0976 to […] sulfamethoxazole by broth micro dilution method; type: functional; conditions: NCIM 2036, 24 h
Pseudomonas aeruginosa [30] = assay: Synergistic antibacterial activity against Pseudomonas aeruginosa NCIM 2036 assessed as fractional inhibitory concentration at 0.5 times MIC after 24 hrs in presence of 0.0976 to […] sulfamethoxazole by broth micro dilution method; type: functional
Escherichia coli [31] = assay: Potency index, ratio of sulfamethoxazole MIC to compound MIC for wild type Escherichia coli NCIM 2065; type: functional
Escherichia coli [32] = assay: Synergistic antibacterial activity against wild type Escherichia coli NCIM 2065 at 0.37 to 50 ug/ml after 24 hrs in presence of […] sulfamethoxazole by broth micro dilution method; type: functional; conditions: NCIM 2065, 24 h
Escherichia coli [33] = assay: Synergistic antibacterial activity against wild type Escherichia coli NCIM 2065 assessed as fractional inhibitory concentration at 0.37 to 50 ug/ml after 24 hrs in presence of […] sulfamethoxazole by broth micro dilution method; type: functional

## O=S(=O)(Nc1nccs1)c1ccc(Cl)cc1
Bacillus cereus [1]
  MIC: 3.1 µg/mL (≈ 11.3 µM)
Staphylococcus aureus [2]
  MIC: 6.2 µg/mL (≈ 22.6 µM)
Escherichia coli [3]
  MIC: 3.1 µg/mL (≈ 11.3 µM)
Pseudomonas aeruginosa [4]
  MIC: 6.2 µg/mL (≈ 22.6 µM)
Escherichia coli [5]
  MIC: 25 µg/mL (≈ 91 µM)
PBMC
  IC50: > 100 µM
CCRF-CEM
  IC50: > 100 µM
Vero
  IC50: 6.2 µM
Escherichia coli [6]
  Ratio: 4
Escherichia coli [7]
  Ratio: 4
Pseudomonas aeruginosa [8]
  MIC: 1.5 µg/mL
Pseudomonas aeruginosa [9]
  FIC: 0.24
Escherichia coli [10]
  MIC: 0.195 µg/mL
Pseudomonas aeruginosa [11]
  MIC: 0.195 µg/mL
Escherichia coli [12]
  FIC: 0.06
Pseudomonas aeruginosa [13]
  FIC: 0.03
Escherichia coli [14]
  MIC: 0.195 µg/mL
Escherichia coli [15]
  FIC: 0.06
Pseudomonas aeruginosa [16]
  fold change (FC): 32

## Cc1cc(NS(=O)(=O)c2ccc(N)cc2)no1 [SULFAMETHOXAZOLE]
Bacillus cereus [1]
  MIC: 6.2 µg/mL (≈ 24.5 µM)
Staphylococcus aureus [2]
  MIC: 6.2 µg/mL (≈ 24.5 µM)
Escherichia coli [3]
  MIC: 3.1 µg/mL (≈ 12.2 µM)
Pseudomonas aeruginosa [4]
  MIC: 3.1 µg/mL (≈ 12.2 µM)
Escherichia coli [5]
  MIC: 25 µg/mL (≈ 98.7 µM)

## O=S(=O)(c1ccc(Cl)cc1)n1cnc2ccccc21
Bacillus cereus [1]
  MIC: 25 µg/mL (≈ 85.4 µM)
Staphylococcus aureus [2]
  MIC: 12.5 µg/mL (≈ 42.7 µM)
Escherichia coli [3]
  MIC: 3.1 µg/mL (≈ 10.6 µM)
Pseudomonas aeruginosa [4]
  MIC: 12.5 µg/mL (≈ 42.7 µM)
Escherichia coli [5]
  MIC: 50 µg/mL (≈ 171 µM)
PBMC
  IC50: > 100 µM
CCRF-CEM
  IC50: > 61.7 µM
Vero
  IC50: > 100 µM
Escherichia coli [17]
  Ratio: 2
Bacillus cereus [18]
  MIC: 6.2 µg/mL
Staphylococcus aureus [19]
  MIC: 3.1 µg/mL
Pseudomonas aeruginosa [20]
  MIC: 3.1 µg/mL
Bacillus cereus [21]
  FIC: 0.24
Staphylococcus aureus [22]
  FIC: 0.24
Pseudomonas aeruginosa [23]
  FIC: 0.24
Bacillus cereus [24]
  MIC: 6.2 µg/mL
Staphylococcus aureus [25]
  MIC: 3.1 µg/mL
Pseudomonas aeruginosa [8]
  MIC: 3.1 µg/mL
Bacillus cereus [26]
  FIC: 0.24
Staphylococcus aureus [27]
  FIC: 0.12
Pseudomonas aeruginosa [9]
  FIC: 0.24
Escherichia coli [10]
  MIC: 0.391 µg/mL
Escherichia coli [12]
  FIC: 0.12
Escherichia coli [14]
  MIC: 0.0976 µg/mL
Escherichia coli [15]
  FIC: 0.03

## C[C@@H]1C[C@@H]([C@H](O)CC2CC(=O)NC(=O)C2)C(=O)[C@@H](C)C1 [CYCLOHEXIMIDE]
Bacillus cereus [1]
  MIC: 12.5 µg/mL (≈ 44.4 µM)
Staphylococcus aureus [2]
  MIC: 12.5 µg/mL (≈ 44.4 µM)
Escherichia coli [3]
  MIC: 12.5 µg/mL (≈ 44.4 µM)
Pseudomonas aeruginosa [4]
  MIC: 12.5 µg/mL (≈ 44.4 µM)
Escherichia coli [5]
  MIC: 50 µg/mL (≈ 178 µM)
PBMC
  IC50: 0.9 µM
CCRF-CEM
  IC50: 0.2 µM
Vero
  IC50: 0.2 µM

## O=[N+]([O-])c1ccc(S(=O)(=O)n2ncc3cc([N+](=O)[O-])ccc32)cc1
Bacillus cereus [1]
  MIC: 6.2 µg/mL (≈ 17.8 µM)
Staphylococcus aureus [2]
  MIC: 6.2 µg/mL (≈ 17.8 µM)
Escherichia coli [3]
  MIC: 3.1 µg/mL (≈ 8.9 µM)
Pseudomonas aeruginosa [4]
  MIC: 3.1 µg/mL (≈ 8.9 µM)
Escherichia coli [5]
  MIC: 12.5 µg/mL (≈ 35.9 µM)
Escherichia coli [17]
  Ratio: 2
Pseudomonas aeruginosa [28]
  Ratio: 2
Escherichia coli [6]
  Ratio: 4
Escherichia coli [7]
  Ratio: 4
Escherichia coli [10]
  MIC: 0.195 µg/mL
Pseudomonas aeruginosa [11]
  MIC: 0.195 µg/mL
Escherichia coli [12]
  FIC: 0.06
Pseudomonas aeruginosa [13]
  FIC: 0.06
Escherichia coli [14]
  MIC: 0.0976 µg/mL
Pseudomonas aeruginosa [29]
  MIC: 0.195 µg/mL
Escherichia coli [15]
  FIC: 0.03
Pseudomonas aeruginosa [30]
  FIC: 0.06

## Cc1ccc(S(=O)(=O)n2cnc3ccccc32)cc1
Bacillus cereus [1]
  MIC: 50 µg/mL (≈ 184 µM)
Staphylococcus aureus [2]
  MIC: 25 µg/mL (≈ 91.8 µM)
Escherichia coli [3]
  MIC: 6.2 µg/mL (≈ 22.8 µM)
Pseudomonas aeruginosa [4]
  MIC: 25 µg/mL (≈ 91.8 µM)
Escherichia coli [5]
  MIC: 50 µg/mL (≈ 184 µM)
PBMC
  IC50: > 100 µM
CCRF-CEM
  IC50: ≥ 100 µM
Vero
  IC50: > 100 µM
Escherichia coli [31]
  Ratio: 2
Bacillus cereus [18]
  MIC: 12.5 µg/mL
Staphylococcus aureus [19]
  MIC: 12.5 µg/mL
Pseudomonas aeruginosa [20]
  MIC: 6.2 µg/mL
Bacillus cereus [21]
  FIC: 0.25
Staphylococcus aureus [22]
  FIC: 0.5
Pseudomonas aeruginosa [23]
  FIC: 0.24
Bacillus cereus [24]
  MIC: 6.2 µg/mL
Staphylococcus aureus [25]
  MIC: 6.2 µg/mL
Escherichia coli [32]
  MIC: 3.1 µg/mL
Pseudomonas aeruginosa [8]
  MIC: 6.2 µg/mL
Bacillus cereus [26]
  FIC: 0.24
Staphylococcus aureus [27]
  FIC: 0.49
Escherichia coli [33]
  FIC: 0.5
Pseudomonas aeruginosa [9]
  FIC: 0.24
Escherichia coli [10]
  MIC: 0.781 µg/mL
Escherichia coli [12]
  FIC: 0.12

## O=C(N[C@H](CO)[C@H](O)c1ccc([N+](=O)[O-])cc1)C(Cl)Cl [CHLORAMPHENICOL]
Bacillus cereus [1]
  MIC: 6.2 µg/mL (≈ 19.2 µM)
Staphylococcus aureus [2]
  MIC: 6.2 µg/mL (≈ 19.2 µM)
Escherichia coli [3]
  MIC: 6.2 µg/mL (≈ 19.2 µM)
Pseudomonas aeruginosa [4]
  MIC: 6.2 µg/mL (≈ 19.2 µM)
Escherichia coli [5]
  MIC: 50 µg/mL (≈ 155 µM)

Source: ChEMBL document CHEMBL4118194, “Molecular modeling, synthesis, antibacterial and cytotoxicity evaluation of sulfonamide derivatives of benzimidazole, indazole, benzothiazole and thiazole” (Bioorg Med Chem, 2018)
